Experiments:
[1] = Rodent brain penetration study; format: in vivo, Male Wistar rats; settings: male, Wistar, rat, 3 mg/kg, oral (gavage), read-out: Single dose Brain Penetration (Cb/Cp)
Method: Male Wistar rats (225±25 grams) were used as experimental animals. Three animals were housed in each cage. Animals were given water and food ad libitum throughout the experiment and maintained on a 12 hours light/dark cycle. Brain penetration was determined in discrete manner in rats. One day prior to dosing day, male wistar rats (225-250 grams) were acclimatized. After acclimatization the rats were grouped according to their weight. In each group, 3 animals were kept in individual cage and allowed free access to food and water. At each time point (0.50, 1 and 2 hours) n=3 animals were used. The test compounds were suitably preformulated and administered orally at (free base equivalent) 3 mg/kg. Blood samples were removed via, cardiac puncture by using isoflurane anesthesia. The animals were sacrificed to collect brain tissue. Plasma was separated and brain samples were homogenized and stored frozen at −20° C. until analysis. The concentrations of the test compounds in plasma and brain were determined using LC-MS/MS method. The test compounds were quantified in plasma and brain homogenate by qualified LC-MS/MS method using suitable extraction technique. The test compounds were quantified in the calibration range of 1-500 ng/mL in plasma and brain homogenate. Study samples were analyzed using calibration samples in the batch and quality control samples spread across the batch. Extent of brain-plasma ratio was calculated (Cb/Cp).

[2] = tested on: sAPPα; test: Estimation of mice brain cortical sAPPα levels (ELISA); format: in vivo, Male C57BL/6J mice; settings: 1 mg/kg, s.c., 60 minutes post treatment
Method: 3. The supernatant was discarded and to the precipitate, 4 times volume (0.8 mL/200 mg tissues) of TBS was added.
4. From the above centrifuged mixture the supernatant was discarded and 10 times volume of 6M Guanidine-HCl in 50 mM Tris buffer pH: 7.6 (500 μL/50 mg tissues) was added.
5. […] From this 5 μL of supernatant solution was taken and diluted with 155 μL of EIA buffer (dilution factor 32).
The entire procedure was followed as described in the ELISA kit manual (Mouse/Rat sAPPα ELISA, Catalog Number: JP27415, Innovation Beyond Limits International, Hamburg, Germany).
Statistical analyses were performed using the Graph Pad Prism (Version 4).

[3] = tested on: acetylcholine; test: Modulation of acetylcholine from the ventral hippocampus (microdialysis); format: in vivo, male Wistar rats; settings: 1.0 mg/kg, p.o.
Excerpt: Male Wistar rats (240-300 grams) were stereotaxically implanted with a microdialysis guide cannula in ventral hippocampus (AP: −5.2 mm, ML: +5.0 mm, DV: −3.8 mm). Co-ordinates were taken according to Paxinos and Watson (2004) with reference points taken from bregma and vertical from the skull. The rats were allowed to recover individually for four to five days in a round bottom Plexiglas bowl with free access to feed and water.
One day prior to the microdialysis experiment, rats were connected to a dual quartz lined two-channel liquid swivel (Instech, UK) on a counter balance lever arm, which allowed unrestricted movements of the animal. […]
A stabilization period of 2 h was maintained and five basal samples were collected at 20 minutes intervals. […] Dialysates were stored below −70° C. until quantitation of acetylcholine.
Acetylcholine in dialysate was quantified in the calibration range of 0.103 nmol-103.491 nmol using LC-MS/MS method.
All microdialysis data were plotted as percent change from mean dialysate basal concentrations with 100% defined as the average of five pre-dose values. The AUC was calculated by trapezoidal rule using WinNonlin (5.0.1 version, Pharsight Corp. CA). The statistical significance between the mean AUC values of treatment groups with vehicle was calculated using one-way ANOVA followed by Dunnett's test. […]

[4] = biological target: T1, hERG (Homo sapiens, UniProt Q12809); test: Automated hERG patch clamp assay; format: cell-based; settings: hERG-HEK293 cells, whole cell patch clamp
T1 construct: expressed in transfected cells; host or cells: HEK293 (hERG-HEK293)
T1 sequence (Q12809 whole entry): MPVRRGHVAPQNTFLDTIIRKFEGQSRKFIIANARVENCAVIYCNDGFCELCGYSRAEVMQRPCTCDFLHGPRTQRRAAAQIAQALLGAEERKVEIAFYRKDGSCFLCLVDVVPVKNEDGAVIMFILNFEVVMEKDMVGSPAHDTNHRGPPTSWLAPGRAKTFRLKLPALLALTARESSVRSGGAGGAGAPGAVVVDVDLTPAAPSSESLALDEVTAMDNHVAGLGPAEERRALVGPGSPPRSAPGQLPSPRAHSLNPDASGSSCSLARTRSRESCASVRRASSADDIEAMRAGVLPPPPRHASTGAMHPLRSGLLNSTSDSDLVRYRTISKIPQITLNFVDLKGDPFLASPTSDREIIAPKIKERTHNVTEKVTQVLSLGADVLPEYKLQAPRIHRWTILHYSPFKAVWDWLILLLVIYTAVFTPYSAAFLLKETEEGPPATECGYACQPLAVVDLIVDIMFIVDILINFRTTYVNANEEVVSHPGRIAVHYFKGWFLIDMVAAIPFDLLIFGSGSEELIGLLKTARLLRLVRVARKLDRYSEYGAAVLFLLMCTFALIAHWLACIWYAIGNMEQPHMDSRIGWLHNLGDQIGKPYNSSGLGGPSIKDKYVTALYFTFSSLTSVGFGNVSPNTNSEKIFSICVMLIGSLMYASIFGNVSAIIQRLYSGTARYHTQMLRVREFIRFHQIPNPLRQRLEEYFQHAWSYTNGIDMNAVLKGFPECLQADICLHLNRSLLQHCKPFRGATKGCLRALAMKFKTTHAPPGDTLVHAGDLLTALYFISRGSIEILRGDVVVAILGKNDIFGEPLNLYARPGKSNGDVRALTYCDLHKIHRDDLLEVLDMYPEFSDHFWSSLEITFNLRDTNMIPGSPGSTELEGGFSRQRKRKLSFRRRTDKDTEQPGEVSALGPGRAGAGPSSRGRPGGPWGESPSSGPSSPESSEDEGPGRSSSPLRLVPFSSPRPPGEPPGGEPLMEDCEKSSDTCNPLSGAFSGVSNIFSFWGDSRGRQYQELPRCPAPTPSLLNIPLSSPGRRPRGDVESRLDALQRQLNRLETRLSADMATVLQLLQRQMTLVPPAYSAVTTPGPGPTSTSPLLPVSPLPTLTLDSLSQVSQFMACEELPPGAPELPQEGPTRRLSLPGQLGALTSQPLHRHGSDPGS
Method: To study the cardiac safety of test compounds using automated hERG patch clamp assay, hERG-HEK293 cells were grown to 70% confluency and were harvested using accumax. The cells were then suspended in complete media and were incubated at 37° C. and 5% CO2 for 30 minutes before using these cells for the whole cell patch clamp assay. Whole cell patch clamp recordings were conducted on Nanion's Patchliner using I-V protocol of voltage step from holding potential of −80 mV to +40 mV for 500 ms and then to test potential for 500 ms and back to holding potential of −80 mV. Pulses were elicited every 10 seconds. Each test compound concentration was incubated for 5 minutes. Data analysis was done by plotting the raw data using Igor Pro software and IC50 values were calculated. Cells with resistance >1 Gohms and tail currents of >200 pA were taken into consideration for data analysis. Quinidine was used as positive control.

Kp [1]: 1.48 ± 0.26
SMILES: CC(C)(O)CN1CCC(F)(CNC(=O)c2cc(Cl)c(N)c3ccoc23)CC1 [Example 50, 4-Amino-5-chloro-N-{[4-fluoro-1-(2-hydroxy-2-methylpropyl)-4-piperidinyl]methyl}benzofuran-7-carboxamide L(+)-tartarate]
increase in mice brain cortical sAPPα levels [2]: 44%
Area under the curve increase, hippocampal acetylcholine [3]: 31%
increase in acetylcholine levels from ventral hippocampus [3]: 51%
IC50 [4]: > 10 µM
